According to patent publication US9695155B2, “Herbicidal substituted pyrimidinyloxy benzene compounds” (E. I. DU PONT DE NEMOURS AND COMPANY, priority 2013, dated 2017):

What was measured:
[1] = tested on: barnyardgrass; test: Test A preemergence; assay type: in vivo, Echinochloa crus-galli; conditions: for Barnyardgrass plant response rating: 500 g ai/ha
Outline: (§1)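 Compounds in non-phytotoxic solvent with surfactant applied as soil spray preemergence, or postemergence to plants 2-10 cm at one- to two-leaf stage, in loam/sand. After approximately 10 days in greenhouse, injury rated visually versus untreated controls, 0 (no effect) to 100 (complete control).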

[2] = tested on: large (Lg) crabgrass; test: Test A preemergence; assay type: in vivo, Digitaria sanguinalis; conditions: for Crabgrass, Large plant response rating: 500 g ai/ha
Outline: as §1

[3] = tested on: giant foxtail; test: Test A preemergence; assay type: in vivo, Setaria faberii; conditions: for Foxtail, Giant plant response rating: 500 g ai/ha
Outline: as §1

[4] = tested on: morningglory; test: Test A preemergence; assay type: in vivo, Ipomoea spp.; conditions: for Morningglory plant response rating: 500 g ai/ha
Outline: as §1

[5] = tested on: pigweed; test: Test A preemergence; assay type: in vivo, Amaranthus retroflexus; conditions: for Pigweed plant response rating: 500 g ai/ha
Outline: as §1

[6] = tested on: velvetleaf; test: Test A preemergence; assay type: in vivo, Abutilon theophrasti; conditions: for Velvetleaf plant response rating: 500 g ai/ha
Outline: as §1

[7] = tested on: wheat; test: Test A preemergence; assay type: in vivo, Triticum aestivum; conditions: for Wheat plant response rating: 500 g ai/ha
Outline: as §1

[8] = tested on: corn; test: Test A preemergence; assay type: in vivo, Zea mays; conditions: for Corn plant response rating: 500 g ai/ha
Outline: as §1

[9] = tested on: barnyardgrass; test: Test A postemergence; assay type: in vivo, Echinochloa crus-galli
Outline: as §1

[10] = tested on: large (Lg) crabgrass; test: Test A postemergence; assay type: in vivo, Digitaria sanguinalis
Outline: as §1

[11] = tested on: giant foxtail; test: Test A postemergence; assay type: in vivo, Setaria faberii; conditions: 0 to 100 scale where 0 is no effect and 100 is complete control
Outline: as §1

[12] = tested on: morningglory; test: Test A postemergence; assay type: in vivo, Ipomoea spp.; conditions: 0 to 100 scale where 0 is no effect and 100 is complete control
Outline: as §1

[13] = tested on: pigweed; test: Test A postemergence; assay type: in vivo, Amaranthus retroflexus; conditions: 0 to 100 scale where 0 is no effect and 100 is complete control
Outline: as §1

[14] = tested on: velvetleaf; test: Test A postemergence; assay type: in vivo, Abutilon theophrasti; conditions: 0 to 100 scale where 0 is no effect and 100 is complete control
Outline: as §1

[15] = tested on: wheat; test: Test A postemergence; assay type: in vivo, Triticum aestivum; conditions: 0 to 100 scale where 0 is no effect and 100 is complete control
Outline: as §1

[16] = tested on: corn; test: Test A postemergence; assay type: in vivo, Zea mays
Outline: as §1

[17] = tested on: rice; test: Test B flooded paddy test; assay type: in vivo, Oryza sativa; conditions: Flood, 250 g ai/ha; 0 to 100 scale where 0 is no effect and 100 is complete control
Outline: (§2)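 Post-emergence paddy-water application at the 2-leaf stage, with 3 cm flood kept for the whole test. Response was judged visually relative to controls after 13 to 15 greenhouse days, 0 indicating no effect and 100 complete control.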

[18] = tested on: sedge, umbrella; test: Test B flooded paddy test; assay type: in vivo, Cyperus difformis; conditions: Flood, 250 g ai/ha; 0 to 100 scale where 0 is no effect and 100 is complete control
Outline: as §2

[19] = tested on: Heteranthera limosa; test: Test B flooded paddy test; assay type: in vivo; conditions: Flood, 250 g ai/ha; 0 to 100 scale where 0 is no effect and 100 is complete control
Outline: as §2

[20] = tested on: barnyardgrass; test: Test B flooded paddy test; assay type: in vivo, Echinochloa crus-galli; conditions: Flood, 250 g ai/ha; 0 to 100 scale where 0 is no effect and 100 is complete control
Outline: as §2

[21] = tested on: rice; test: Test C flooded paddy test; assay type: in vivo, Oryza sativa; conditions: Flood, scale 0 to 100 (0 no effect, 100 complete control), 13 to 15 days
From the text: (§3) At time of treatment, test pots were flooded to 3 cm above the soil surface, treated by application of test compounds directly to the paddy water, and then maintained at that water depth for the duration of the test. Treated plants and controls were maintained in a greenhouse for 13 to 15 days, after which time all species were compared to controls and visually evaluated. […] A dash (-) response means no test result.

[22] = tested on: sedge, umbrella; test: Test C flooded paddy test; assay type: in vivo, Cyperus difformis; conditions: Flood, scale 0 to 100 (0 no effect, 100 complete control), 13 to 15 days
From the text: as §3

[23] = tested on: ducksalad; test: Test C flooded paddy test; assay type: in vivo, Heteranthera limosa; conditions: Flood, scale 0 to 100 (0 no effect, 100 complete control), 13 to 15 days
From the text: as §3

[24] = tested on: barnyardgrass; test: Test C flooded paddy test; assay type: in vivo, Echinochloa crus-galli; conditions: Flood, scale 0 to 100 (0 no effect, 100 complete control), 13 to 15 days
Outline: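 Visual injury ratings against untreated controls, taken 13 to 15 days after compound was added to paddy water standing 3 cm above the soil.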

[25] = 0 to 100 scale where 0 is no effect and 100 is complete control
[26] = 125 g ai/ha, 0 to 100 scale where 0 is no effect and 100 is complete control
[27] = 500 g ai/ha, 0 to 100 scale where 0 is no effect and 100 is complete control
[28] = 0 to 100 scale, 0 no effect, 100 complete control, approx. 10 days
[29] = 500 g ai/ha, 0 to 100 scale, 0 no effect, 100 complete control

Compound: CON=Cc1cccc(Oc2ncc(Cl)cn2)c1-n1cc(Br)cn1 [Compound 203]
- Barnyardgrass plant response rating (0 to 100 scale, 0 is no effect, 100 is complete control) ([1]; 125 g ai/ha): 10
- Barnyardgrass plant response rating [1, 25]: 40
- Crabgrass, Large plant response rating (0 to 100 scale) ([2]; 125 g ai/ha): 100
- Crabgrass, Large plant response rating [2, 25]: 100
- Foxtail, Giant plant response rating (0 to 100 scale) ([3]; 125 g ai/ha): 90
- Foxtail, Giant plant response rating [3, 25]: 100
- Morningglory plant response rating (0 to 100 scale) ([4]; 125 g ai/ha): 0
- Morningglory plant response rating [4, 25]: 10
- Pigweed plant response rating (0 to 100 scale) ([5]; 125 g ai/ha): 90
- Pigweed plant response rating [5, 25]: 100
- Velvetleaf plant response rating (0 to 100 scale) ([6]; 125 g ai/ha): 30
- Velvetleaf plant response rating [6, 25]: 40
- Wheat plant response rating (0 to 100 scale) ([7]; 125 g ai/ha): 0
- Wheat plant response rating [7, 25]: 0
- Corn plant response rating (0 to 100 scale) ([8]; 125 g ai/ha): 0
- Corn plant response rating [8, 25]: 0
- Barnyardgrass plant response rating [9, 26]: 40
- Plant response rating, Barnyardgrass [9, 27]: 70
- Crabgrass, Large plant response rating [10, 26]: 60
- Plant response rating, Crabgrass, Large [10, 27]: 80
- Foxtail, Giant plant response rating ([11]; 125 g ai/ha): 70
- Plant response rating, Foxtail, Giant ([11]; 500 g ai/ha): 80
- Morningglory plant response rating ([12]; 125 g ai/ha): 20
- Plant response rating, Morningglory ([12]; 500 g ai/ha): 70
- Pigweed plant response rating ([13]; 125 g ai/ha): 70
- Plant response rating, Pigweed ([13]; 500 g ai/ha): 90
- Velvetleaf plant response rating ([14]; 125 g ai/ha): 80
- Plant response rating, Velvetleaf ([14]; 500 g ai/ha): 90
- Wheat plant response rating ([15]; 125 g ai/ha): 0
- Plant response rating, Wheat ([15]; 500 g ai/ha): 20
- Corn plant response rating [16, 26]: 30
- Plant response rating, Corn [16, 27]: 50
- Plant response rating, Rice [17]: 10
- Plant response rating, Sedge, Umbrella [18]: 90
- Plant response rating, Ducksalad [19]: 90
- Plant response rating, Barnyardgrass [20]: 0
- Plant response rating, Rice ([21]; 31 g ai/ha): 0
- Plant response rating, Rice ([21]; 62 g ai/ha): 20
- Plant response rating, Rice ([21]; 125 g ai/ha): 20
- Plant response rating, Sedge, Umbrella ([22]; 31 g ai/ha): 50
- Plant response rating, Sedge, Umbrella ([22]; 62 g ai/ha): 75
- Plant response rating, Sedge, Umbrella ([22]; 125 g ai/ha): 85
- Plant response rating, Ducksalad ([23]; 31 g ai/ha): 0
- Plant response rating, Ducksalad ([23]; 62 g ai/ha): 50
- Plant response rating, Ducksalad ([23]; 125 g ai/ha): 70
- Plant response rating, Barnyardgrass ([24]; 31 g ai/ha): 40
- Plant response rating, Barnyardgrass ([24]; 62 g ai/ha): 50
- Plant response rating, Barnyardgrass ([24]; 125 g ai/ha): 50

Compound: FC(F)c1cnn(-c2ccccc2Oc2ncc(Br)cn2)c1 [Compound 81]
- Plant response rating, Barnyardgrass [1, 26]: 0
- Barnyardgrass plant response rating [1, 28]: 70
- Plant response rating, Crabgrass, Large [2, 26]: 90
- Crabgrass, Large plant response rating [2, 28]: 100
- Plant response rating, Foxtail, Giant [3, 26]: 80
- Foxtail, Giant plant response rating [3, 28]: 100
- Plant response rating, Morningglory [4, 26]: 0
- Morningglory plant response rating [4, 28]: 60
- Plant response rating, Pigweed [5, 26]: 0
- Pigweed plant response rating [5, 28]: 0
- Plant response rating, Velvetleaf [6, 26]: 50
- Velvetleaf plant response rating [6, 28]: 100
- Plant response rating, Wheat [7, 26]: 10
- Wheat plant response rating [7, 28]: 10
- Plant response rating, Corn [8, 26]: 0
- Corn plant response rating [8, 28]: 10
- Plant response rating, Barnyardgrass [9, 26]: 50
- Plant response rating, Barnyardgrass [9, 29]: 100
- Plant response rating, Crabgrass, Large [10, 26]: 40
- Plant response rating, Crabgrass, Large [10, 29]: 90
- Plant response rating, Foxtail, Giant ([11]; 125 g ai/ha): 50
- Plant response rating, Foxtail, Giant ([11]; 500 g ai/ha): 90
- Plant response rating, Morningglory ([12]; 125 g ai/ha): 50
- Plant response rating, Morningglory ([12]; 500 g ai/ha): 100
- Plant response rating, Pigweed ([13]; 125 g ai/ha): 100
- Plant response rating, Pigweed ([13]; 500 g ai/ha): 100
- Plant response rating, Velvetleaf ([14]; 125 g ai/ha): 100
- Plant response rating, Velvetleaf ([14]; 500 g ai/ha): 100
- Plant response rating, Wheat ([15]; 125 g ai/ha): 10
- Plant response rating, Wheat ([15]; 500 g ai/ha): 60
- Plant response rating, Corn [16, 26]: 50
- Plant response rating, Corn [16, 29]: 30
- Plant response rating, Rice [17]: 0
- Plant response rating, Sedge, Umbrella [18]: 80
- Plant response rating, Ducksalad [19]: 90
- Plant response rating, Barnyardgrass [20]: 0
- Plant response rating, Rice ([21]; 31 g ai/ha): 0
- Plant response rating, Rice ([21]; 62 g ai/ha): 0
- Plant response rating, Rice ([21]; 125 g ai/ha): 0
- Plant response rating, Rice ([21]; 250 g ai/ha): 0
- Plant response rating, Sedge, Umbrella ([22]; 31 g ai/ha): 0
- Plant response rating, Sedge, Umbrella ([22]; 62 g ai/ha): 50
- Plant response rating, Sedge, Umbrella ([22]; 125 g ai/ha): 70
- Plant response rating, Sedge, Umbrella ([22]; 250 g ai/ha): 90
- Plant response rating, Ducksalad ([23]; 31 g ai/ha): 30
- Plant response rating, Ducksalad ([23]; 62 g ai/ha): 40
- Plant response rating, Ducksalad ([23]; 125 g ai/ha): 60
- Plant response rating, Ducksalad ([23]; 250 g ai/ha): 90
- Plant response rating, Barnyardgrass ([24]; 31 g ai/ha): 0
- Plant response rating, Barnyardgrass ([24]; 62 g ai/ha): 0
- Plant response rating, Barnyardgrass ([24]; 125 g ai/ha): 0
- Plant response rating, Barnyardgrass ([24]; 250 g ai/ha): 0
